Measured values as given in patent publication US20150094294A1, “COMPOUNDS AND METHODS FOR TREATING MALARIA” (Cellceutix Corporation, priority 2012, published 2015).

Legend:
Type in all cases: cell-based
[1] = tested on: 3T3 cells; experiment: Cytotoxicity against 3T3 cells
[2] = tested on: HepG2 cells; experiment: Cytotoxicity against HepG2 cells
[3] = tested on: P. falciparum 3D7 (chloroquine-sensitive); experiment: Anti-malarial activity, P. falciparum 3D7 culture, 72 hour, DNA content by flow cytometry; details: synchronized ring-stage parasites
Outline: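 Magnet-synchronized ring-stage parasites in RPMI 1640/Albumax II were plated at 0.5% parasitemia, 4% final hematocrit, with compound added as 2× dilutions (2.5 μM to 20 nM) for 72 h. Fixed, Triton-permeabilized cells were stained with SYTOX Green (5 μM final), and DNA content was measured by flow cytometry to derive IC50.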

| SMILES | EC50 [1] [µM] | EC50 [2] [µM] | IC50 [3] [µM] |
| --- | --- | --- | --- |
| N=C(N)NCCCc1cccc(-c2cc(-c3cccc(CCCNC(=N)N)c3)ncn2)c1 [Compound 135] | 623 | 697 | 0.131 |
| N=C(N)NCCCOc1cc(OCCCNC(=N)N)c(-c2cccc(F)c2)cc1-c1cccc(F)c1 [Compound 138] | 78 | 85 | 0.226 |
| N=C(N)NCCc1cccc(NC(=O)c2cc(C(=O)Nc3cccc(CCNC(=N)N)c3)nc(SCCN)n2)c1 [Compound 182] | 330 | 345 | 0.56 |
| O=C(Nc1ccc(O[C@@H]2CCNC2)c(C(F)(F)F)c1)c1cc(C(=O)Nc2ccc(O[C@@H]3CCNC3)c(C(F)(F)F)c2)ncn1 [Compound 187] | 42 | 130 | 0.041 |
| Nc1cccc(NC(=O)c2cc(C(=O)Nc3cccc(N)n3)ncn2)n1 [Compound 189] | > 1000 | > 1000 | > 2 |
| N=C(N)N1CC[C@@H](Oc2ccc(NC(=O)c3cc(C(=O)Nc4ccc(O[C@@H]5CCN(C(=N)N)C5)c(C(F)(F)F)c4)ncn3)cc2C(F)(F)F)C1 [Compound 190] | 33 | 41 | 0.026 |
| CC(C)(C)c1cc(NC(=O)c2cccc(C#N)c2)c(SCCN)c(NC(=O)c2cc(C(=O)Nc3cc(C(C)(C)C)cc(NC(=O)c4cccc(C#N)c4)c3SCCN)ncn2)c1 [Compound 198] | 7 | 30 | 0.005 |
| O=C(Nc1ccc(OC2CCNCC2)cc1)c1cc(C(=O)Nc2ccc(OC3CCNCC3)cc2)ncn1 [Compound 199] | 192 | 353 | 0.01 |
| CN(C)CCSc1ccc(NC(=O)c2cc(C(=O)Nc3ccc(SCCN(C)C)cc3)ncn2)cc1 [Compound 202] | 632 | 648 | 0.007 |
| O=C(Nc1ccc(OC2CCNC2)c(F)c1)c1cc(C(=O)Nc2ccc(OC3CCNC3)c(F)c2)ncn1 (stereo not drawn) [Compound 209] | 431 | 516 | 0.066 |
| O=C(Nc1ccc(N2CCNCC2)cc1)c1cccc(C(=O)Nc2ccc(N3CCNCC3)cc2)n1 [Compound 211] | > 1000 | > 1000 | > 0.1 |
| CN(C)C1CCN(c2ccc(NC(=O)c3cc(C(=O)Nc4ccc(N5CCC(N(C)C)CC5)cc4)ncn3)cc2)CC1 [Compound 213] | 244 | 51 | 0.035 |
| Nc1cc(NC(=O)c2cc(C(=O)Nc3ccc(N4CCNCC4)c(F)c3)ncn2)ccc1N1CCNCC1 [Compound 218] | 46 | 233 | 0.056 |
| NCCSc1nc(-c2cccc(CCN)c2)cc(-c2cccc(CCN)c2)n1 [Compound 220] | > 1000 | > 1000 | 1.55 |
| NCCc1cccc(-c2cncc(-c3ccc(-c4cncc(-c5cccc(CCN)c5)c4)s3)c2)c1 [Compound 223] | 18 | 82 | 0.516 |
| NCCCOc1cccc(-c2cncc(-c3ccc(-c4cncc(-c5cccc(OCCCN)c5)c4)s3)c2)c1 [Compound 225] | 35 | 179 | 0.461 |
| N=C(N)NCCCOc1cccc(-c2cncc(-c3ccc(-c4cncc(-c5cccc(OCCCNC(=N)N)c5)c4)s3)c2)c1 [Compound 227] | 54 | 117 | 0.65 |
| NCCc1cccc(-c2cc(-c3ccc(-c4cc(-c5cccc(CCN)c5)ncn4)s3)ncn2)c1 [Compound 229] | 3 | 262 | 0.628 |
| N=C(N)NCCc1cccc(-c2cncc(-c3ccc(-c4cncc(-c5cccc(CCNC(=N)N)c5)c4)cc3)c2)c1 [Compound 231] | 998 | > 1000 | 0.369 |
| NCCc1cccc(-c2cncc(-c3ccc(-c4cncc(-c5cccc(CCN)c5)c4)cc3)c2)c1 [Compound 234] | > 1000 | > 1000 | 0.655 |
| NCCc1cccc(-c2ccc(-c3cccc(CCN)c3)cc2)c1 [Compound 235] | 14 | 156 | > 2 |
| NCCc1cccc(-c2ccc(-c3cccc(CCN)c3)s2)c1 [Compound 236] | < 14 | 186 | > 2 |
| NCCc1cccc(-c2ccc(-c3cccc(CCN)c3)o2)c1 [Compound 237] | 2 | 222 | > 2 |
| N=C(N)NCCc1cccc(-c2ccc(-c3cccc(CCNC(=N)N)c3)s2)c1 [Compound 238] | 108 | 310 | 0.109 |
| N=C(N)NCCc1cccc(-c2ccc(-c3cccc(CCNC(=N)N)c3)cc2)c1 [Compound 239] | 149 | 288 | 0.102 |
| N=C(N)NCCc1cccc(-c2ccc(-c3cccc(CCNC(=N)N)c3)o2)c1 [Compound 240] | 461 | 904 | 0.121 |
| NCCCOc1cccc(-c2ccc(-c3cccc(OCCCN)c3)s2)c1 [Compound 241] | 34 | 38 | > 2 |
| NCCc1cccc(-c2cnc(-c3cccc(CCN)c3)s2)c1 [Compound 242] | 71 | 584 | > 2 |

| SMILES | EC50 [1] [µM] | EC50 [2] [µM] | IC50 [3] [µM] |
| --- | --- | --- | --- |
| N=C(N)NCCc1cccc(-c2cnc(-c3cccc(CCNC(=N)N)c3)s2)c1 [Compound 243] | 523 | 723 | 0.058 |
| N=C(N)NCCCOc1cccc(-c2ccc(-c3cccc(OCCCNC(=N)N)c3)s2)c1 [Compound 244] | 20 | 19 | 0.149 |
| Cn1c(-c2cccc(CCN)c2)cnc1-c1cccc(CCN)c1 [Compound 245] | > 1000 | > 1000 | 0.541 |
| Cn1c(-c2cccc(CCNC(=N)N)c2)cnc1-c1cccc(CCNC(=N)N)c1 [Compound 246] | > 1000 | > 1000 | 0.005 |
| NCCc1ccc(-c2ccc(-c3ccc(CCN)cc3)s2)cc1 [Compound 247] | < 14 | 74 | 0.034 |
| NCCc1ccccc1-c1ccc(-c2ccccc2CCN)s1 [Compound 249] | 7 | 46 | 0.028 |
| NCCc1cccc(-c2cn(-c3cccc(CCN)c3)nn2)c1 [Compound 250] | > 1000 | > 1000 | 0.556 |
| N=C(N)NCCc1ccccc1-c1ccc(-c2ccccc2CCNC(=N)N)s1 [Compound 251] | 559 | 692 | 0.012 |
| N=C(N)NCCc1cccc(-c2cn(-c3cccc(CCNC(=N)N)c3)nn2)c1 [Compound 256] | > 1000 | > 1000 | 0.059 |
| CN1CCN(c2ccc(-c3ccc(-c4ccc(N5CCN(C)CC5)cc4)s3)cc2)CC1 [Compound 260] | > 1000 | > 1000 | > 0.1 |
| Cn1c(-c2ccc(CCCN)cc2)cnc1-c1ccc(CCCN)cc1 [Compound 265] | > 1000 | > 1000 | > 0.1 |
| N=C(N)NCCCc1ccc(-c2ccc(-c3ccc(CCCNC(=N)N)cc3)s2)cc1 [Compound 266] | 38 | 197 | 0.059 |
| Cn1c(-c2ccc(CCCNC(=N)N)cc2)cnc1-c1ccc(CCCNC(=N)N)cc1 [Compound 267] | 651 | 823 | 0.029 |
| O=C(Nc1ccc(SCCNC2=NCCN2)c(C(F)(F)F)c1)Nc1ccc(SCCNC2=NCCN2)c(C(F)(F)F)c1 [Compound 268] | 74 | 447 | 0.087 |
| N=C(N)NCCc1cccc(NC(=O)Nc2cccc(CCNC(=N)N)c2)c1 [Compound 269] | > 1000 | > 1000 | 0.32 |
| N=C(N)N1CCC(Oc2ccc(NC(=O)Nc3ccc(OC4CCN(C(=N)N)C4)c(C(F)(F)F)c3)cc2C(F)(F)F)C1 (stereo not drawn) [Compound 271] | 172 | 347 | 0.029 |
| N=C(N)NCCSc1ccc(NC(=O)Nc2ccc(OC3CCN(C(=N)N)C3)c(C(F)(F)F)c2)cc1C(F)(F)F (stereo not drawn) [Compound 272] | 65 | 214 | 0.038 |
| NCCCSc1ccc(NC(=O)Nc2ccc(SCCCN)c(C(F)(F)F)c2)cc1C(F)(F)F [Compound 274] | 72 | 164 | > 2 |
| N=C(N)NCCSc1ccc(NC(=O)Nc2ccc(SCCCN)c(C(F)(F)F)c2)cc1C(F)(F)F [Compound 275] | 124 | 342 | 1.7 |
| COc1cc(SCCN)c(C(F)(F)F)cc1NC(=O)Nc1cc(C(F)(F)F)c(SCCN)cc1OC [Compound 277] | 31 | 64 | 0.57 |
| CC1(C)c2cc(-c3cccc(CCN)c3)ccc2-c2ccc(-c3cccc(CCN)c3)cc21 [Compound 281] | 2 | 5 | > 0.1 |
| CCn1c2ccc(C3=CCNCC3)cc2c2cc(C3=CCNCC3)ccc21 [Compound 282] | 57 | 126 | > 0.1 |
| CCn1c2ccc(C3CCNCC3)cc2c2cc(C3CCNCC3)ccc21 [Compound 283] | 153 | 284 | > 0.1 |
| CCn1c2ccc(C3CCN(C(=N)N)CC3)cc2c2cc(C3CCN(C(=N)N)CC3)ccc21 [Compound 285] | 587 | 815 | 0.086 |
| N=C(N)N1CC=C(c2ccc3sc4ccc(C5=CCN(C(=N)N)CC5)cc4c3c2)CC1 [Compound 286] | 83 | 221 | 0.08 |
| CCn1c2ccc(C3=CCN(C(=N)N)CC3)cc2c2cc(C3=CCN(C(=N)N)CC3)ccc21 [Compound 287] | 84 | 200 | > 0.1 |
| N=C(N)NCCCn1c2ccc(C3=CCN(C(=N)N)CC3)cc2c2cc(C3=CCN(C(=N)N)CC3)ccc21 [Compound 289] | 248 | 425 | > 0.1 |
